Measured values taken from ChEMBL document CHEMBL1201862, “PubChem BioAssay data set” (2004).
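Values below derive from 48-hour exposures of cells grown in 96-well plates, with endpoints linearly interpolated between the two concentrations bracketing the appropriate inhibition level. GI50 = concentration required for 50% inhibition of growth.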 Active and inactive are the calls of the source. No stated cut-off is given here; in the data, active = GI50 up to about 1.1 µM and inactive = higher.

Tests used:
Assay in all cases: DTP human tumour cell line panel, 48 h
[1] = tested on: A549
[2] = tested on: EKVX
[3] = tested on: HCT-15
[4] = tested on: HL-60
[5] = tested on: HOP-92
[6] = tested on: HT-29
[7] = tested on: Hs-578T
[8] = tested on: K562
[9] = tested on: KM12
[10] = tested on: MCF7
[11] = tested on: MDA-MB-231
[12] = tested on: MDA-MB-435
[13] = tested on: SF-268
[14] = tested on: SK-MEL-28
[15] = tested on: SR
[16] = tested on: UACC-257
[17] = tested on: A498
[18] = tested on: MOLT-4
[19] = tested on: OVCAR-3
[20] = tested on: OVCAR-5

Compound	GI50 [1]	GI50 [2]	GI50 [3]	GI50 [4]	GI50 [5]	GI50 [6]	GI50 [7]	GI50 [8]	GI50 [9]	GI50 [10]	GI50 [11]	GI50 [12]	GI50 [13]	GI50 [14]	GI50 [15]	GI50 [16]	GI50 [17]	GI50 [18]	GI50 [19]	GI50 [20]
N#Cc1nc(/C=C/c2nc(C#N)c(N)o2)oc1N	> 10 µM (inactive)	> 10 µM (inactive)	> 10 µM	> 10 µM (inactive)	> 10 µM (inactive)	> 10 µM (inactive)	> 10 µM (inactive)	> 10 µM (inactive)	> 10 µM (inactive)	> 10 µM (inactive)	> 10 µM (inactive)	> 10 µM (inactive)	> 10 µM (inactive)	> 10 µM (inactive)	> 10 µM (inactive)	> 10 µM (inactive)				
CC1=NN(c2nc(N)nc(C/C(N)=N/O)n2)C(C)(C)C1	> 100 µM (inactive)	> 100 µM (inactive)	> 100 µM	> 100 µM (inactive)	> 100 µM (inactive)	> 100 µM (inactive)	> 100 µM (inactive)	> 100 µM (inactive)	> 100 µM (inactive)	> 100 µM (inactive)	> 100 µM (inactive)	> 100 µM (inactive)	> 100 µM (inactive)	> 100 µM (inactive)		> 100 µM (inactive)	> 100 µM (inactive)	> 100 µM (inactive)	> 100 µM (inactive)	> 100 µM (inactive)
CSc1ccc(C(=O)C(=O)c2ccc(SC)s2)s1	> 10 µM (inactive)	> 10 µM (inactive)	> 10 µM	3.43 µM (inactive)	> 10 µM (inactive)	> 10 µM (inactive)	3.46 µM (inactive)	6.32 µM (inactive)	> 10 µM (inactive)	5.58 µM (inactive)	> 10 µM (inactive)	4.34 µM (inactive)	> 10 µM (inactive)	> 10 µM (inactive)	3.92 µM (inactive)	> 10 µM (inactive)		2.51 µM (inactive)	> 10 µM (inactive)	> 10 µM (inactive)
Cc1cc(C)nc(NS(=O)(=O)c2ccc(NC(=O)c3cc([N+](=O)[O-])cc([N+](=O)[O-])c3)cc2)n1	> 100 µM (inactive)		> 100 µM	30.1 µM (inactive)	42.5 µM (inactive)	31.4 µM (inactive)	> 100 µM (inactive)	60.7 µM (inactive)	50.7 µM (inactive)	55 µM (inactive)	> 100 µM (inactive)	> 100 µM (inactive)	44.4 µM (inactive)	99.8 µM (inactive)	0.0755 µM (active)	16.4 µM (inactive)	> 100 µM (inactive)	1.79 µM (inactive)	30.5 µM (inactive)	
Cl/C(=N\c1cccc2ccccc12)N(c1ccccc1)c1ccccc1	56.5 µM (inactive)		> 100 µM			52.7 µM (inactive)	> 100 µM (inactive)	31.8 µM (inactive)	75 µM (inactive)	35.2 µM (inactive)	> 100 µM (inactive)	> 100 µM (inactive)		> 100 µM (inactive)	25.4 µM (inactive)	70 µM (inactive)	> 100 µM (inactive)		60.1 µM (inactive)	> 100 µM (inactive)
COc1c(C)c(C/C=C(\C)CC/C=C(\C)CC/C=C(\C)CC/C=C(\C)CCC=C(C)C)c(OC)c(OC)c1OC	17.6 µM (inactive)	44.4 µM (inactive)	92 µM		15.6 µM (inactive)	88.3 µM (inactive)	> 100 µM (inactive)	24.4 µM (inactive)	14.7 µM (inactive)	51.1 µM (inactive)	28.3 µM (inactive)	31.1 µM (inactive)	18.6 µM (inactive)		22.9 µM (inactive)	80.5 µM (inactive)		40.6 µM (inactive)	> 100 µM (inactive)	> 100 µM (inactive)
O=C1c2ccc3ccccc3c2CCC1N1CCCCC1 (stereo unspecified)	19.5 µM (inactive)	22.4 µM (inactive)	20.2 µM	21.9 µM (inactive)	16.6 µM (inactive)	20.5 µM (inactive)	20.3 µM (inactive)	17.6 µM (inactive)	17.7 µM (inactive)	33.3 µM (inactive)	16.9 µM (inactive)	18 µM (inactive)	19.1 µM (inactive)	18.1 µM (inactive)	15.1 µM (inactive)	20.7 µM (inactive)			15.4 µM (inactive)	19.7 µM (inactive)
C=CCc1ccccc1C1CC2(C(=O)OC)OC1C(C(=O)OC)=C2C(=O)OC (stereo unspecified)	> 10 µM (inactive)	> 10 µM (inactive)	> 10 µM	> 10 µM (inactive)		> 10 µM (inactive)	> 10 µM (inactive)	> 10 µM (inactive)	> 10 µM (inactive)	> 10 µM (inactive)	> 10 µM (inactive)	> 10 µM (inactive)	> 10 µM (inactive)	> 10 µM (inactive)	> 10 µM (inactive)	> 10 µM (inactive)	> 10 µM (inactive)	> 10 µM (inactive)	> 10 µM (inactive)	> 10 µM (inactive)
CC1(C)S[C@@H]2[C@H](NC(=O)/C=C/c3ccccc3)C(=O)N2[C@H]1C(=O)O	> 100 µM (inactive)		> 100 µM	> 100 µM (inactive)	> 100 µM (inactive)	> 100 µM (inactive)	> 100 µM (inactive)		> 100 µM (inactive)	> 100 µM (inactive)	> 100 µM (inactive)	> 100 µM (inactive)	> 100 µM (inactive)	69.5 µM (inactive)	> 100 µM (inactive)	> 100 µM (inactive)		> 100 µM (inactive)	> 100 µM (inactive)	> 100 µM (inactive)
c1ccc(/C(=N/Nc2ccncn2)c2ccccn2)cc1	30.4 µM (inactive)	4.34 µM (inactive)	24.4 µM			0.883 µM (active)	0.0114 µM (active)	0.528 µM (active)	22 µM (inactive)	8.51 µM (inactive)	32.2 µM (inactive)	48.6 µM (inactive)	15.9 µM (inactive)	70.3 µM (inactive)	10.5 µM (inactive)	20.9 µM (inactive)		3.47 µM (inactive)	6.78 µM (inactive)	34.5 µM (inactive)
Cc1cnc2c(c1C)C(=O)c1ccccc1C2=O	40.1 µM (inactive)	37.8 µM (inactive)	21.6 µM		> 100 µM (inactive)	37.2 µM (inactive)	32.9 µM (inactive)	39.4 µM (inactive)	44.6 µM (inactive)	39.1 µM (inactive)	26.5 µM (inactive)	19.3 µM (inactive)	20.1 µM (inactive)	> 100 µM (inactive)	38 µM (inactive)	49.4 µM (inactive)	> 100 µM (inactive)	28.3 µM (inactive)	3.48 µM (inactive)	> 100 µM (inactive)
O=C(Cc1ccccc1)N/N=C/c1ccccc1O	26.1 µM (inactive)	5.28 µM (inactive)	4.25 µM	6.3 µM (inactive)	9.14 µM (inactive)	4.84 µM (inactive)	36.1 µM (inactive)	13.9 µM (inactive)	32.7 µM (inactive)	3.94 µM (inactive)	> 100 µM (inactive)	28.6 µM (inactive)	8.57 µM (inactive)	40.4 µM (inactive)	5.52 µM (inactive)	9.57 µM (inactive)		4.55 µM (inactive)	3.36 µM (inactive)	20.6 µM (inactive)
O=c1oc2ccc([N+](=O)[O-])cc2c(Nc2ccc3c(c2)Sc2ccccc2O3)c1[N+](=O)[O-]	24.9 µM (inactive)	25.9 µM (inactive)	17.7 µM	18.6 µM (inactive)	16.3 µM (inactive)	27.2 µM (inactive)	37 µM (inactive)	24.2 µM (inactive)	21.5 µM (inactive)	22.1 µM (inactive)	18.6 µM (inactive)	30.8 µM (inactive)	27.5 µM (inactive)	25.9 µM (inactive)	22.5 µM (inactive)	23.2 µM (inactive)			15.9 µM (inactive)	22.1 µM (inactive)
NC(=O)c1nnsc1NN=O	> 100 µM (inactive)	> 100 µM (inactive)	> 100 µM	> 100 µM (inactive)		> 100 µM (inactive)	> 100 µM (inactive)	> 100 µM (inactive)	> 100 µM (inactive)	> 100 µM (inactive)	> 100 µM (inactive)	> 100 µM (inactive)	> 100 µM (inactive)	> 100 µM (inactive)	> 100 µM (inactive)	> 100 µM (inactive)	> 100 µM (inactive)	> 100 µM (inactive)		> 100 µM (inactive)
O=[N+]([O-])c1cc(Cl)ccc1S(=O)(=O)N1CCCc2cc(Cl)ccc21	43.1 µM (inactive)	> 100 µM (inactive)	33.7 µM	> 10 µM (inactive)	30.8 µM (inactive)	21 µM (inactive)	> 100 µM (inactive)	9.48 µM (inactive)	51.9 µM (inactive)	45.8 µM (inactive)	> 100 µM (inactive)	17.8 µM (inactive)	> 100 µM (inactive)	> 100 µM (inactive)		7.08 µM (inactive)	45.6 µM (inactive)	6.11 µM (inactive)	> 100 µM (inactive)	> 100 µM (inactive)
CC1=C(C(=O)OCCc2ccc([N+](=O)[O-])cc2)C(c2ccccc2[N+](=O)[O-])C(C(=O)OC(C)C)=C(C)N1 (stereo unspecified)	2.96 µM (inactive)	2.36 µM (inactive)	4.21 µM	2.2 µM (inactive)		5.07 µM (inactive)	4.38 µM (inactive)	3.39 µM (inactive)	3.48 µM (inactive)	3.78 µM (inactive)	4.91 µM (inactive)	5 µM (inactive)	5.55 µM (inactive)	7.57 µM (inactive)	2.94 µM (inactive)	4.04 µM (inactive)		1.99 µM (inactive)	5.08 µM (inactive)	31.1 µM (inactive)
